Counter-ions that a name gives are not always drawn. Like-named read-outs stand apart in the source and are kept apart here.
Molecular target: T1, Human EGF receptor tyrosine kinase (Homo sapiens, UniProt P00533)
T1 construct: isolated from A431 human epidermoid carcinoma cells which overexpress EGF receptor; endogenous in cells; host or cells: A431 human epidermoid carcinoma cells; purified from the lysate on wheat germ agglutinin sepharose
Assay: EGF receptor tyrosine kinase inhibition (phosphorylation of PLC-gamma 1 derived peptide)
Assay type: biochemical
Description: Purification of Epidermal Growth Factor Receptor Tyrosine Kinase—Human EGF receptor tyrosine kinase was isolated from A431 human epidermoid carcinoma cells which overexpress EGF receptor by the following methods. Cells were grown in roller bottles in 50% Delbuco's Modified Eagle and 50% HAM F-12 nutrient media (Gibco) containing 10% fetal calf serum. Approximately 10^9 cells were lysed in two volumes of buffer containing 20 mM 2-(4N-[2-hydroxyethyl]piperazin-1-yl)ethanesulfonic acid (hepes), pH 7.4, 5 mM ethylene glycol bis(2-aminoethyl ether) N,N,N′,N′-tetraacetic acid, 1% Triton X-100, 10% glycerol, 0.1 mM sodium orthovanadate, 5 mM sodium fluoride, 4 mM pyrophosphate, 4 mM benzamide, 1 mM dithiothreitol, 80 μg/mL aprotinin, 40 μg/mL leupeptin and 1 mM phenylmethylsulfonyl fluoride. After centrifugation at 25,000×g for 10 minutes, the supernatant was equilibrated for 2 h at 4° C. with 10 mL of wheat germ agglutinin sepharose that was previously equilibrated with 50 mM Hepes, […], 0.1% Triton X-100 and 150 mM NaCl, pH 7.5, (equilibration buffer). Contaminating proteins were washed from the resin with 1 M NaCl in equilibration buffer, and the enzyme was eluted with 0.5 M N-acetyl-1-D-glucosamine in equilibration buffer, followed by 1 mM urea. The enzyme was eluted with 0.1 mg/ml EGF.
The reaction was terminated by the addition of 2 mL of […] phosphoric acid and passed through a 2.5 cm phosphocellulose filter disc to bind the peptide. The filter was washed five times with 75 mM phosphoric acid and placed in a vial along with 5 mL of scintillation fluid (Ready gel Beckman).

[1] = Table 1, values printed in μM, read-out: EGF Receptor Tyrosine Kinase Inhibition IC50
[2] = Table 1, values in nM, read-out: EGF Receptor Tyrosine Kinase Inhibition IC50
[3] = Table 1, values in pM, read-out: EGF Receptor Tyrosine Kinase Inhibition IC50

T1 sequence (P00533 25-1210): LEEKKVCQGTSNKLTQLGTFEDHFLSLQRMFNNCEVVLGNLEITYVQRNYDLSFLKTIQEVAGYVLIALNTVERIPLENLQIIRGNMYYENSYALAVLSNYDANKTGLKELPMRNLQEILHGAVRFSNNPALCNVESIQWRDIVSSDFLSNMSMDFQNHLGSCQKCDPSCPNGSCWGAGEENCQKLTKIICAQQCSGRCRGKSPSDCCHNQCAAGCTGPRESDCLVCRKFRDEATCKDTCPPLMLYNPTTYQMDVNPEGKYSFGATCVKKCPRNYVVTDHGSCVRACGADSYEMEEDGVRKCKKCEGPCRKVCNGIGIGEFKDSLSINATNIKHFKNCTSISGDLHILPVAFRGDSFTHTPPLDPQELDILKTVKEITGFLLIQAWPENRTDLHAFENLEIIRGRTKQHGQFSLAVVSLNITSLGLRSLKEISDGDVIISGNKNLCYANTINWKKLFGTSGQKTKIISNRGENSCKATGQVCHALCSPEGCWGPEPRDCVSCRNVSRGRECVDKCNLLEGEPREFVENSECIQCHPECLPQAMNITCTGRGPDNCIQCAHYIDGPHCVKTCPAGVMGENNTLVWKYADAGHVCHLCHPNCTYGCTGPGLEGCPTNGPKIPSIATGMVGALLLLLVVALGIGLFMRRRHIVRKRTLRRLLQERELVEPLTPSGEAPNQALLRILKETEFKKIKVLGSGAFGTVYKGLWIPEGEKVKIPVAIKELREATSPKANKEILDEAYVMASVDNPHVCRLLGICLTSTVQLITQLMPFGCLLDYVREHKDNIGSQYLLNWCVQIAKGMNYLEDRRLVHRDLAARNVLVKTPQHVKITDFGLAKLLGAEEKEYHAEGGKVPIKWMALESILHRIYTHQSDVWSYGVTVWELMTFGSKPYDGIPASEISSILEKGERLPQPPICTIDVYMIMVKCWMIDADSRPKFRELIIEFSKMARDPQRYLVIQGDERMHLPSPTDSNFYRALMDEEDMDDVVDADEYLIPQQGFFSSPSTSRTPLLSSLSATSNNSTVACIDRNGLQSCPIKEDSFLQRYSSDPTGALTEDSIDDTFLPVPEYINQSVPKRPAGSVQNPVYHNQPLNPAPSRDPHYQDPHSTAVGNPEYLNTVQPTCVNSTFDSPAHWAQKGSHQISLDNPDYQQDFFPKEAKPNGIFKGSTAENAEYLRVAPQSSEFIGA

Row | SMILES | IC50 [1] | IC50 [2] | other results
1 | c1ccc(Nc2ncnc3cccnc23)cc1 [Example 1, 4-Anilinopyrido[3,2-d]pyrimidine Mesylate] | 8 µM | – | –
2 | c1ccc(CNc2ncnc3cccnc23)cc1 [Example 2, 4-Benzylaminopyrido[3,2-d]pyrimidine] | – | – | IC50: 3.6 µM
3 | Brc1cccc(Nc2ncnc3cccnc23)c1 [Example 3, 4-(3-Bromoanilino)pyrido[3,2-d]pyrimidine] | 1.1 µM | – | –
4 | Clc1ccc2ncnc(Nc3cccc(Br)c3)c2n1 [Example 5, 4-(3-Bromoanilino)-6-chloropyrido[3,2-d]pyrimidine] | 1.9 µM | – | –
5 | COc1ccc2ncnc(Nc3cccc(Br)c3)c2n1 [Example 9, 4-(3-Bromoanilino)-6-methoxypyrido[3,2-d]pyrimidine] | – | 0.405 µM | –
6 | c1ccc(Nc2ncnc3ccncc23)cc1 [Example 10, 4-Anilinopyrido[4,3-d]pyrimidine] | 6.1 µM | – | –
7 | Brc1cccc(Nc2ncnc3ccncc23)c1 [Example 11, 4-(3-Bromoanilino)pyrido[4,3-d]pyrimidine] | – | 0.194 µM | –
8 | Fc1cc2ncnc(Nc3cccc(Br)c3)c2cn1 [Example 12, 4-(3-Bromoanilino)-7-fluoropyrido[4,3-d]pyrimidine] | – | 0.013 µM | –
9 | Nc1cc2ncnc(Nc3ccccc3)c2cn1 [Example 13, 7-Amino-4-anilinopyrido[4,3-d]pyrimidine] | – | 0.25 µM | –
10 | Nc1cc2ncnc(Nc3cccc(O)c3)c2cn1 [Example 14, 7-Amino-4-(3-hydroxyanilino)pyrido[4,3-d]pyrimidine] | – | 0.07 µM | –
11 | COc1cccc(Nc2ncnc3cc(N)ncc23)c1 [Example 15, 7-Amino-4-(3-methoxyanilino)pyrido[4,3-d]pyrimidine] | – | 0.134 µM | –
12 | COc1ccccc1Nc1ncnc2cc(N)ncc12 [Example 16, 7-Amino-4-(2-methoxyanilino)pyrido[4,3-d]pyrimidine] | 3.7 µM | – | –
13 | Nc1cccc(Nc2ncnc3cc(N)ncc23)c1 [Example 17, 7-Amino-4-(3-aminoanilino)pyrido[4 3-d]pyrimidine] | 1.55 µM | – | –
14 | Nc1ccc(Nc2ncnc3cc(N)ncc23)cc1 [Example 18, 7-Amino-4-(4-aminoanilino)pyrido[4,3-d]pyrimidine] | – | 0.173 µM | –
15 | CN(C)c1cccc(Nc2ncnc3cc(N)ncc23)c1 [Example 19, 7-Amino-4-(3-dimethylaminoanilino)pyrido [4,3-d]pyrimidine] | 1.8 µM | – | –
16 | CN(C)c1ccc(Nc2ncnc3cc(N)ncc23)cc1 [Example 20, 7-Amino-4-(4-dimethylaminoanilino)pyrido[4,3-d]pyrimidine] | 4.9 µM | – | –
17 | Nc1cc2ncnc(Nc3ccccc3[N+](=O)[O-])c2cn1 [Example 21, 7-Amino-4-(2-nitroanilino)pyrido[4,3-d]pyrimidine] | 1.25 µM | – | –
18 | Nc1cc2ncnc(Nc3cccc(F)c3)c2cn1 [Example 23, 7-Amino-4-(3-fluoroanilino)pyrido[4,3-d]pyrimidine] | – | 0.84 µM | –
19 | Nc1cc2ncnc(Nc3cccc(Cl)c3)c2cn1 [Example 24, 7-Amino-4-(3-chloroanilino)pyrido[4,3-d]pyrimidine] | – | 0.123 µM | –
20 | Nc1cc2ncnc(Nc3ccc(Cl)c(Cl)c3)c2cn1 [Example 25, 7-Amino-4-(3,4-dichloroanilino)pyrido[4,3-d]pyrimidine] | – | 0.377 µM | –
21 | Nc1cc2ncnc(Nc3ccccc3Br)c2cn1 [Example 26, 7-Amino-4-(2-bromoanilino)pyrido[4,3-d]pyrimidine] | – | 0.241 µM | –
22 | Nc1cc2ncnc(Nc3ccc(Br)cc3)c2cn1 [Example 28, 7-Amino-4-(4-bromoanilino)pyrido[4,3-d]pyrimidine] | – | 0.094 µM | –

Row | SMILES | IC50 [1] | IC50 [2] | other results
23 | Nc1cc2ncnc(Nc3cccc(I)c3)c2cn1 [Example 29, 7-Amino-4-(3-iodoanilino)pyrido[4,3-d]pyrimidine] | – | 0.262 µM | –
24 | Nc1cc2ncnc(Nc3cccc(C(F)(F)F)c3)c2cn1 [Example 31, 7-Amino-4-(3-trifluoromnethylanilino)pyrido[4,3-d]pyrimidine] | – | 0.015 µM | –
25 | Nc1cc2ncnc(Nc3ccc(C(F)(F)F)cc3)c2cn1 [Example 32, 7-Amino-4-(4-trifluoromethylanilino)3pyrido[4,3-d]pyrimidine] | 4.7 µM | – | –
26 | CNc1cc2ncnc(Nc3cccc(Br)c3)c2cn1 [Example 33, 4-(3-Bromoanilino)-7-methylaminopyrido[4 3-d]pyrimidine] | – | – | IC50 [3]: 0.00013 µM
27 | CN(C)c1cc2ncnc(Nc3cccc(Br)c3)c2cn1 [Example 34, 4-(3-Bromoanilino)-7-dimethylaminpyrido[4,3-d]pyrimidine] | – | – | IC50 [3]: 9.1e-05 µM
28 | CNc1cc2ncnc(N(C)c3cccc(Br)c3)c2cn1 [Example 35, 4-[N-(3-Bromophenyl)-N-methylaminol-7-methylaminopyrido 4,3-d]pyrimidine] | – | 0.0031 µM | –
29 | CC(=O)Nc1cc2ncnc(Nc3cccc(Br)c3)c2cn1 [Example 36, 7-Acetylamino-4-(3-bromoanilino)pyrido[4 3-d]pyrimidine] | – | 0.029 µM | –
30 | COc1cc2ncnc(Nc3cccc(Br)c3)c2cn1 [Example 37, 4-(3-Bromoanilino)-7-methoxypyrido[4,3-d]pyrimidine] | – | 0.039 µM | –
31 | c1ccc(CNc2ncnc3ccncc23)cc1 [Example 38, 4-Benzylaminopyrido[4,3-d]pyrimidine] | – | 0.071 µM | –
32 | Nc1cc2ncnc(NCc3ccccc3N)c2cn1 [Example 42, 7-Amino-4-(2-aminobenzylamino)pyrido[4,3-d]pyrimidine] | – | 0.226 µM | –
33 | CN(C)c1cccc(CNc2ncnc3cc(N)ncc23)c1 [Example 43, 7-Amino-4-(3-dimethylaminobenzylamino)pyrido[4,3-d]-pyrimidine] | 10 µM | – | –
34 | Nc1cc2ncnc(NCc3cccc([N+](=O)[O-])c3)c2cn1 [Example 44, 7-Amino-4-(3-nitrobenzylamino)pyrido[4,3-d]pyrimidine] | 10 µM | – | –
35 | COc1cccc(CNc2ncnc3cc(N)ncc23)c1 [Example 45, 7-Amino-4-(3-methoxybenzylamino)pyrido[4,3-d]pyrimidine] | 2.87 µM | – | –
36 | Nc1cc2ncnc(NCc3ccc(Cl)cc3)c2cn1 [Example 46, 7-Amino-4-(4-chlorobenzylamino)pyrido[4,3-d]pyrimidine Mesylate] | 1.42 µM | – | –
37 | Nc1cc2ncnc(NCc3ccccc3Br)c2cn1 [Example 47, 7-Amino-4-(2-bromobenzylamino)pyrido[4,3-d]pyrimidine] | 1.67 µM | – | –
38 | Nc1cc2ncnc(NCc3cccc(Br)c3)c2cn1 [Example 48, 7-Amino-4-(3-bromobenzylamino)pyrido[4,3-d]pyrimidine] | 1 µM | – | –
39 | Nc1cc2ncnc(NCc3ccc(Br)cc3)c2cn1 [Example 49, 7-Amino-4-(4-bromobenzylamino)pyrido[4,3-d]pyrimidine] | 2.5 µM | – | –
40 | Nc1cc2ncnc(NCc3ccccc3C(F)(F)F)c2cn1 [Example 50, 7-Amino-4-(2-trifluoromethylbenzylamino)pyrido[4,3-d]pyrimidine] | 10 µM | – | –
41 | Nc1cc2ncnc(NCc3cccc(C(F)(F)F)c3)c2cn1 [Example 51, 7-Amino-4-(3-trifluoromethylbenzylamino)pyrido[4,3-d]pyrimidine] | 1.95 µM | – | –
42 | Nc1cc2ncnc(NCc3ccc(C(F)(F)F)cc3)c2cn1 [Example 52, 7-Amino-4-(4-trifluoromethylbenzylamino)pyrido[4,3-d]pyrimidine] | 8 µM | – | –
43 | Nc1cc2ncnc(NCc3cccs3)c2cn1 [Example 53, 7-Amino-4-(thien-2-ylmethylamino)[4,3-d]pyrimidine Dimesylate] | 1.8 µM | – | –
